Source: patent US20110060012A1, “4-[3-(ARYLOXY)BENZYLIDENE]-3-METHYL PIPERIDINE 5-MEMBERED ARYL CARBOXAMIDE COMPOUNDS USEFUL AS FAAH INHIBITORS” (Pfizer Inc., priority 2008, published 2011)

Target: T1, Human FAAH (Homo sapiens, UniProt O00519)
T1 construct: made in house
T1 sequence (O00519 1-579): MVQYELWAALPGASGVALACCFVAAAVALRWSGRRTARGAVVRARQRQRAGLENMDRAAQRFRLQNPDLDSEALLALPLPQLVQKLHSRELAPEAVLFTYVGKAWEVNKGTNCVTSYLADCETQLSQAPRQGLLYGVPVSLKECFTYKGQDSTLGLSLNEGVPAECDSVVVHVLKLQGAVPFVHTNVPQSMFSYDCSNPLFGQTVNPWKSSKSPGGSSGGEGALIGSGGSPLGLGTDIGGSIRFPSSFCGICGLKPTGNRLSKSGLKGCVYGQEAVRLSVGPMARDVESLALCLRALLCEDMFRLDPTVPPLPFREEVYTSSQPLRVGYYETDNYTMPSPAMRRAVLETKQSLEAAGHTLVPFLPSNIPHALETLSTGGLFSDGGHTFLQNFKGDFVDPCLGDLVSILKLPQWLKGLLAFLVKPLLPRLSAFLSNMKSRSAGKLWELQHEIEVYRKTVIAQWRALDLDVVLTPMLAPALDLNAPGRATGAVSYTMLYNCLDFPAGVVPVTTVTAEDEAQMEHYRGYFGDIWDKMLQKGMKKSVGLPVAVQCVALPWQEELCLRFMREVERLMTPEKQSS
Assay: FAAH enzyme assay (glutamate dehydrogenase-coupled, oleamide substrate)
Assay type: biochemical
Conditions: human FAAH 1-4 nM, pH 7.4, 30° C., absorbance at 340 nm over 90 min, read-out: hFAAH Kinact/Ki
Method: A FAAH enzyme assay may be carried out as described in W02006/085196 in 384-well clear polystyrene plates in a total volume of 50 μl per well. All percents are by volume. To each well was placed the reaction mixture (40 μl) containing 1-4 nM FAAH, 50 mM NaPi, pH 7.4, 3 mM α-ketoglutarate, 0.15 mM NADH, 7.5 U/ml glutamate dehydrogenase, 2 mM ADP, 1 mM EDTA, and 0.1% Triton X-100 (The concentration shown for each component is the final concentration in the assay). To this mixture was added 5 μl of a compound of Examples 1 to 20 at various concentrations prepared in 50% DMSO (or 5 μl 50% DMSO for controls). This was immediately followed by the addition of 5 μl oleamide (500 μM) dissolved in 75% EtOH/25% DMSO and the reaction mixture is mixed for 1.5 min. The final concentrations of DMSO and EtOH in the assay were each 7.5%. The reactions was then incubated at 30° C. and the absorbance at 340 nm was collected over a period of 90 min with readings taken in 30-second intervals using SpectraMax Plus^384 Microplate Spectrophotometer (Molecular Devices, Sunnyvale, Calif.). Human FAAH used in the assay was prepared as described in the patent application WO 2006/067613. The purity of the enzyme used was greater than 98% based on an analysis by SDS-polyacrylamide gel electrophoresis followed by Coomassie Blue staining.
Initial velocity data (V) is obtained from the slopes of the initial progressive curves. They are plotted as a function of substrate concentration and fit to the Michaelis-Menten equation (1) using Prism (GraphPad Software, Inc., San Diego, Calif.) software to obtain Km and Vmax values.
To obtain potencies of irreversible inhibitors, progressive curves consistent with first order inhibition kinetics (two-step irreversible inhibition mechanism) are fit to equation (2) by nonlinear least squares regressions to determine kobs values at each inhibitor concentration, where [P]t is the absorbance at time t, V0 is a constant related to the steady state rate of the uninhibited reaction, and kobs is the first order rate constant for enzyme inactivation. […]

kinact/KI [M⁻¹ s⁻¹] | SMILES
2850 | Cc1oncc1NC(=O)N1CC/C(=C\c2cccc(Oc3ccc(C(F)(F)F)cn3)c2)C(C)C1 (single isomer, unassigned) [Example 2, (4E)-3-methyl-N-(5-methylisoxazol-4-yl)-4-(3-{[5-(trifluoromethyl)pyridin-2-yl]oxy}benzylidene)piperidine-1-carboxamide]
624 | Cc1noc(NC(=O)N2CC/C(=C\c3cccc(Oc4ccc(C(F)(F)F)cn4)c3)C(C)C2)c1C (single isomer, unassigned) [Example 1, (4E)-N-(3,4-dimethylisoxazol-5-yl)-3-methyl-4-(3-{[5-(trifluoromethyl)pyridin-2-yl]oxy}benzylidene)piperidine-1-carboxamide]
4350 | CC1CN(C(=O)Nc2cnoc2)CC/C1=C\c1cccc(Oc2ccc(C(F)(F)F)cn2)c1 (single isomer, unassigned) [Example 3, (4E)-N-isoxazol-4-yl-3-methyl-4-(3-{[5-(trifluoromethyl)pyridin-2-yl]oxy}benzylidene)piperidine-1-carboxamide]
